# Assay results taken from patent US6444698B1, “Application of 2,3,7,8-tetrachlorodibenzo-para-dioxin (TCDD) as a promoter blocker of cancer” (priority 1998, dated 2002).
# Values joined by “and” are separate entries in the source; they are usually repeats but may differ in a detail not shown here. Equal entries are not always repeated. “Also recorded” adds a separate entry of the source. Where two headings read alike, the source gives them in different places.
# Key:
# [1] = molecular target: T1, aryl hydrocarbon (Ah) receptor (Homo sapiens, UniProt P35869); conditions: cited from earlier work
# T1 sequence (P35869 11-848): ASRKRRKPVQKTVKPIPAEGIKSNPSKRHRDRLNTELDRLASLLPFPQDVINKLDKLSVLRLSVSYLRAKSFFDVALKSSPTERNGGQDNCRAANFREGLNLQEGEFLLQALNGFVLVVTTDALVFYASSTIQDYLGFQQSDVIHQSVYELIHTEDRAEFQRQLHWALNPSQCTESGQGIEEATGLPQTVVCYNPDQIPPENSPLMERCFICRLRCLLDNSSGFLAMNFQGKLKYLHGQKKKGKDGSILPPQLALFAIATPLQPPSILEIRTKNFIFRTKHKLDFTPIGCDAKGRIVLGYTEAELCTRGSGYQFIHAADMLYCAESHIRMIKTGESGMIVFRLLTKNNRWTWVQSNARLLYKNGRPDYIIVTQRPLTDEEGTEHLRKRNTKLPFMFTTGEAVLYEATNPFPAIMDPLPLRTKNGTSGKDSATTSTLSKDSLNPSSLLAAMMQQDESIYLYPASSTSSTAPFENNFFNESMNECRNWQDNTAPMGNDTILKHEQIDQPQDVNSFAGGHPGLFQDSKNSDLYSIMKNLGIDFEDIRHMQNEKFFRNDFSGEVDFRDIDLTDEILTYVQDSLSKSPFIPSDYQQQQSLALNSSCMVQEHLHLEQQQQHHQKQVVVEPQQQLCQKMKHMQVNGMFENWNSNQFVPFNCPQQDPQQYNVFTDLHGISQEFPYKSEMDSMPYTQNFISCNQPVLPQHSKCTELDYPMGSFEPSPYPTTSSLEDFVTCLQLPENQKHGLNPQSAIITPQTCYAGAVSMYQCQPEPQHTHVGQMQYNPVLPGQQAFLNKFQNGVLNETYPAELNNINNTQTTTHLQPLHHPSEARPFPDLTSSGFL
# [2] = system: Sprague-Dawley rats; test: Kociba lifetime rodent feeding study; type: in vivo, rat
# Method: EPA has sought to regulate dioxin as a carcinogen on three occassions. […] Kociba et al., Toxicol. Appl. Pharmacol. 46, 279-303 (1978). […] Kociba et al. (1978); U.S. EPA (1985); and U.S. EPA (1994).
# Kociba et al, (1978); U.S. EPA (1985 and 1994).
# To develop the Invention further, cross species comparisons are performed when no second epidemiology report is available to test the effect of TCDD exposure on women. […] Kayajanian, Regul. Toxicol. Pharmacol. 26, 134-137 (1997).
# [3] = system: Operation Ranch Hand (ORH) airmen; conditions: cited from earlier work
# [4] = system: mouse skin; conditions: cited from earlier work
# [5] = system: male workers in 12 chemical plants; conditions: most highly TCDD-exposed members of the NIOSH workforce (Steenland 1999); cited from earlier work
# [6] = system: Sprague-Dawley rats; conditions: cited from earlier work
# [7] = system: residential population of men and women; conditions: cited from earlier work
# [8] = system: residential population of men and women; test: Seveso Study, cancer incidence in residential population exposed to TCDD; type: in vivo, human
# Excerpt: (§1) In addition to published and unpublished epidemiology data from the NIOSH Report (Fingerhut et al. (1990)), additional NIOSH Life Table records (LT20406 (1990)), and the Steenland et al. article (1999), the Inventor relies on Bertazzi et al.'s (Epidemiol. 4, 398-406 (1993)) cancer incidence data presentation on a residential population of men and women exposed to the lowest levels of TCDD as a result of a chemical plant explosion near Seveso, Italy, and the Inventor's own analysis of cancer incidence and body burden data in the Operation Ranch Hand (ORH) airmen exposed to TCDD as a result of service in Southeast Asia during the Vietnam War. None of the NIOSH and Seveso papers cited above claim that TCDD acts as an anti-carcinogen. The Air Force Scientists charged with developing the ORH Study also fail to observe TCDD as an anti-carcinogen. Ketchum et al. Amer. J. Epidem. 149, 630-639 (1999).
# (§2) The Seveso Study (Bertazzi et al. (1993)) is a report on cancer incidence and cancer incidence changes in the first ten years following the population's exposure to TCDD and other chemicals. Over the course of these ten years, one expects not to register the carcinogenic effects of any chemicals acting as cancer initiators and to include any effects attributable to TCDD discernible within ten years, like promotion or promotion blocking. The first ten years of the lifetime NIOSH Study offer the same advantage. Fingerhut et al. (1990).
# For a limited number of narrow cancer classifications, Bertazzi et al. (1993) has provided cancer incidence data stratified in five year intervals both for publication and as a courtesy to the Inventor. Kayajanian, Ecotox. Environ. Safety 42, 103-109 (1999). Fingerhut et al. (1990) also published five year cancer occurrence observations for total cancers. […] This pattern of cancer incidence reduction in the second five year interval is what one would expect if TCDD acted as a promoter blocker of the enumerated individual cancer classifications and a sufficient number of other cancers to generate a significant total cancer incidence reduction.
# The significant individual and total cancer reductions the Inventor noted from the Seveso data, whether stratified or not (Bertazzi et al. (1993)) are associated with median levels of 48 ppt TCDD. Bertazzi et al., Amer. J. Epidem. 153, 1031-1043 (2001). Measurement of TCDD levels include both men and women.
# [9] = system: Operation Ranch Hand (ORH) airmen; test: Operation Ranch Hand (ORH) cancer incidence and body burden analysis; type: in vivo, human
# Excerpt: as §1
# The ORH cancer incidence data collected over 30 years has particular value, because one may compute the cancer incidence effects associated with military service in Southeast Asia in internal cohorts unexposed or virtually unexposed to TCDD and distinguish them from an internal cohort of airmen exposed to TCDD within a well calibrated body burden range.
# Kayajanian, Ecotox. Environ. Safety 46, 103-109 (2000); and Kayajanian, Ecotox. Environ. Safety (In press, 2001).
# Kayajanian (2000)(In press, 2001). One standout cancer reduction is associated with an even lower TCDD body burden level: prostate cancer in black veterans is highest at non detect TCDD levels of less than 1.25 ppt; it is reduced at body burdens between 1.25 and 4.0 ppt, and lowest above 4.00 ppt, The pattern of prostate cancer reduction in black men is significant. Kayajanian, (In press, 2001).
# [10] = system: industrial cohorts; conditions: cited from earlier work
# [11] = system: male workers in 12 chemical plants; test: NIOSH Study of chemical plant workers, cancer occurrence; type: in vivo, human
# Excerpt: In 1994, EPA sought to regulate TCDD as a “probable” human carcinogen, using a population of 5280 male workers in 12 chemical plants, each of whom was exposed to contaminant levels of TCDD and some mix of 1000 unidentified other chemicals. Fingerhut et al. (1990). Fingerhut compared the cancer incidence in the plant workers to that expected in a national reference, and EPA concluded all the cancer incidence increases noted by Fingerhut were caused by the TCDD exposure and none were caused by exposures to other chemicals. U.S. EPA (1994). EPA's Science Advisory Board rejected the Agency's TCDD cancer claims. U.S. EPA Science Advisory Board, Review of Draft Documents: A Second Look at Dioxin (1995).
# as §2
# One of the plants (Midland) in the NIOSH Report has workers who reproduce the signature of individual cancer reductions and increases the Inventor observed in Seveso low exposure men: reductions in lung, primary liver (measured in Midland as liver) and multiple myeloma, which collectively are significant; and increases in STS and NHL, which individually are significant. The Seveso signature pattern of cancer incidence changes is present even though workers in Midland and the other 11 chemical plants were exposed to confounding chemicals which might have masked or diminished the extent of pattern confirmation. LT20406 (1990). From Steenland et al. (1999), one can estimate the TCDD level associated with the Midland plant wotkers as 105 ppt above background, or between 105 and 115 ppt.
# The specific and total cancer reductions noted in the NIOSH, Seveso, and ORH studies can be tied to specific dioxin body burden levels measured in serum. Reading Steenland et al. (1999) and Fingerhut et al. (1990) together, one can estimate a range from 3 to 10,000 ppt extra TCDD in serum in eight of the 12 NIOSH plante worker cohorts. […] Midland workers, who show the Seveso pattern of reductions of specific cancers, had 105 ppt TCDD above background, which is assumed to be 0 to 10 ppt.
# [12] = tritiated TCDD ingested in corn oil, volunteer; cited from earlier work
# [13] = low exposure cohorts, second five years compared to first five years
smiles,measurement,setting,value
"Clc1cc2c(cc1Cl)Oc1cc(Cl)c(Cl)cc1O2 [TCDD, 2,3,7,8-tetrachlorodibenzo-para-dioxin]",binding to the aryl hydrocarbon (Ah) receptor,[1],preferentially binds
same,total cancers,"[2]; each sex, low and mid dose TCDD levels of 540 and 5100 ppt in liver tissue",significant reduction
same,total cancers,"[2]; low dose female rats, p<0.01",significantly reduced
same,uterine cancers,"[2]; low dose female rats, p<0.06",significantly reduced
same,liver cancer incidence,"[2]; low dose, each sex, significant in the males",reduction
same,"percentagewise cancer incidence reduction, male versus female rats",[2]; lowest study exposure,in male rats to a greater extent than in female rats
same,cancers at multiple tissue sites and overall,"[2]; male and female rats, TCDD body burdens of 540 and 5100 ppt",reduction
same,mean TCDD level of airmen when they left Vietnam,[3],195.7 ppt
same,artificially elevated skin cancer incidence,[4]; TCDD administered simultaneously with or a day after the skin cancer initiation step,No reduction
same,artificially elevated skin cancer incidence,"[4]; very high single dose administered one to five days prior to initiation, several mice strains",significantly reduces
same,total cancers,[5],significant increase
same,hepatocarcinogenicity,"[6]; body burden level 25,400 ppt (Safe citing Kociba)",very hepatocarcinogenic
same,liver cancer incidence,[6]; high dose female Sprague-Dawley rats fed TCDD over a lifetime,significantly elevated
same,mammary and uterine cancers,"[6]; high dose female, body burden level 25,400 ppt (Safe citing Kociba)",anti-carcinogenic
same,total cancers,"[7]; Italian men from Seveso, pooled two highest exposed cohorts, over twenty years (Bertazzi 2001)",significant increase
same,median TCDD level associated with significant individual and total cancer reductions,[7]; men and women,48 ppt and 48.0 ppt
same,lung and multiple myeloma cancer incidence in men,[8]; compared to the outside reference over the entire ten year period,significantly or notably reduced
same,incidence of soft tissue sarcoma (STS) and non Hodgkins lymphoma (NHL),"[8]; low exposure adults (men plus women), second five years compared to first five years",significantly increased
same,corpus uteri cancer incidence in women,[8]; [13],significant cancer incidence reduction
same,primary liver cancer incidence in men,[8]; [13],significant cancer incidence reduction
same,total cancer incidence in women,[8]; [13],significant cancer incidence reduction
same,"percentagewise cancer incidence reduction, men versus women",[8]; lowest study exposure,to a greater extent in men than in women
same,total cancers other than skin,"[9]; all airmen, 50 ppt (mean body burden 50-100 ppt)",significant cancer incidence reductions; also recorded: significant non skin cancer reductions
same,prostate cancer in black veterans,[9]; body burdens above 4.00 ppt,lowest
same,prostate cancer in black veterans,[9]; body burdens between 1.25 and 4.0 ppt,reduced
same,skin cancer incidence,"[9]; non black airmen, 100 ppt (mean body burden 50-100 ppt)",significant cancer incidence reductions; also recorded: significant skin cancer reductions
same,prostate cancer in black veterans,[9]; non detect TCDD levels of less than 1.25 ppt,highest
same,mean TCDD body burden levels at which significant cancer incidence reductions are observed,[9]; skin and total cancers other than skin,50-100 ppt
same,total cancer mortality,[10]; most highly TCDD-exposed German herbicide chemical plant workers (Flesch-Janys 1995),significant increase
same,total cancers,"[10]; separate studies of different industrial cohorts (Zober 1990, Manz 1991)",total cancer increase
same,"lung, primary liver (measured as liver) and multiple myeloma cancers","[11]; Midland plant workers, collectively significant",reductions
same,STS and NHL,"[11]; Midland plant workers, individually significant",increases
same,TCDD level associated with the Midland plant workers,[11]; including background,105-115 ppt
same,incidence of total cancers in men,"[11]; years 6-10 compared to years 1-5, Fingerhut Report",significantly less
same,label retention,[12],87%
